The results in this text go back to PubChem BioAssay AID1996.

Molecules are shown by their SMILES. Converted amounts (≈) assume the structure as drawn.

The conditions of this data set: buffer; pH 7.4; 200.0 µM.
Regarding `Cc1ccc(C2=NOC3(CC(=O)N(c4ccccc4)C3=O)C2)cc1` (stereo not given), the solubility (kinetic) is 45.2 µg/mL (≈ 141 µM).
Regarding `CC(Sc1nccn1C)C(=O)Nc1ccccc1` (stereo not given), the kinetic solubility is over 39.2 µg/mL.
On to `COc1cccc(CN2CC=C(c3ccc(F)cc3)CC2)c1`, for which the kinetic solubility stood at 10.3 µg/mL (≈ 34.6 µM).
`Cc1ccc(C(=O)Nc2cc3[nH]c(=O)oc3cc2C)cc1` returned a kinetic solubility of 4.8 µg/mL (≈ 17 µM).
Take `Cc1cccc(OC(C)C(=O)N2CCCN(C)CC2)c1C` (stereo not given): the kinetic solubility was over 43.6 µg/mL.
In turn, `Cc1nonc1NC(=O)CSc1nc2ccc(Cl)cc2[nH]1` yielded a solubility (kinetic) of 36.4 µg/mL (≈ 112 µM).
The compound `CC(C)(C)OC(=O)N1CCCN(C(=O)Nc2ccccc2)CC1` returned a solubility (kinetic) of 46.3 µg/mL (≈ 145 µM).
Compound `CCN(CC)CCN1CNC(=S)N(c2ccccc2OC)C1` returned a kinetic solubility of over 48.4 µg/mL.
For `CC1CCN(C(=O)c2ccccc2NC(=O)c2cccs2)CC1` the value was over 49.3 µg/mL.
Consider `COc1ccc(NC(=O)c2ccc(NC(=O)c3ccncc3)cc2)cc1`, for which the solubility (kinetic) turned out to be 0.8 µg/mL (≈ 2.3 µM).
`O=C(NCCCN1CCCC1=O)c1ccccc1OCc1ccc(Cl)cc1Cl` displayed a kinetic solubility of 54.7 µg/mL (≈ 130 µM).
The value for `O=C(Cn1cnc2ccccc2c1=O)c1ccc(OC(F)F)cc1` was 9.2 µg/mL (≈ 27.9 µM); that for `Cc1ccc(NC(=O)CCNC(=O)c2ccco2)cc1Cl` was 20.3 µg/mL (≈ 66.2 µM); that for `O=C(COC(=O)c1ccc(Cl)c([N+](=O)[O-])c1)NC1CCCC1` was 7.6 µg/mL (≈ 23.3 µM).
For `CC(=O)NC(C(=O)c1ccccc1)N1CCCCC1` (stereo not given) the value was 29.1 µg/mL (≈ 112 µM); for `COc1ccc(OC)c(Nc2nc(NCCC(C)C)nc(N)c2[N+](=O)[O-])c1`, under 0.1 µg/mL; for `CC(OC(=O)[C@@H]1CCCN1C(=O)c1cccs1)C(=O)Nc1cccc([N+](=O)[O-])c1` (stereo not given in full), 18.4 µg/mL (≈ 44.1 µM).
For `OCCNC(=S)Nc1ccc2c(c1)OCCO2` the value was 37 µg/mL (≈ 145 µM); for `Cc1ccc(S(=O)(=O)N2CCN(C(=O)CCC(=O)Nc3ccc(F)cc3F)CC2)cc1`, over 67.7 µg/mL.
The compound `CC(NC(=O)CS(=O)(=O)c1ccccc1)c1ccccc1` (stereo not given) came in with a solubility (kinetic) of over 45.5 µg/mL.
The compound `COc1ccc(Nc2c3c(nc4ccc(C)cc24)CCC3)cc1.Cl` displayed a solubility (kinetic) of 36.6 µg/mL.
`Cc1ccc(Nc2nc(-c3cccnc3)nc3ccccc23)cc1` gave a solubility (kinetic) of 0.6 µg/mL (≈ 1.92 µM).
The value for `O=C(NCCN1CCCCC1)Nc1ccc(Br)cc1` was 48.4 µg/mL (≈ 148 µM); that for `Cc1ccc(NC(=O)C(c2ccccc2)c2ccccc2)nc1` was 11.5 µg/mL (≈ 38 µM); that for `Cc1ccc(S(=O)(=O)N2CCCCC2c2cccnc2)c(C)c1C` (stereo not given) was 45.9 µg/mL (≈ 133 µM).
Take `COc1cc(C)c(COc2ncnc3ccccc23)cc1OC`: the solubility (kinetic) was found to be 40.1 µg/mL (≈ 129 µM).
Consider `O=C1N=c2ccccc2=C1c1c(O)[nH]c2c(C(F)(F)F)cccc12`, for which the solubility (kinetic) was under 0.4 µg/mL.
As for `Cc1cc([N+](=O)[O-])nn1CC(=O)N(C)C1CCCCC1`, the kinetic solubility is over 42 µg/mL.
The compound `O=C(COc1ccccc1Br)Nc1ccc2c(c1)OCCCO2` displayed a kinetic solubility of 1.6 µg/mL (≈ 4.23 µM).
The compound `O=C(O)CC1(CC(=O)Nc2ccc(F)c(Cl)c2)CCCCC1` returned a kinetic solubility of over 49.2 µg/mL.
In turn, `CCn1c2ccccc2c2cc(NC(=O)C(=O)N3CCOCC3)ccc21` registered a kinetic solubility of 10.1 µg/mL (≈ 28.7 µM).
Turning to `NS(=O)(=O)c1cccc(NC(=O)COC(=O)c2cc([N+](=O)[O-])ccc2N2CCCC2)c1`, the solubility (kinetic) was found to be 9.7 µg/mL (≈ 21.6 µM).
In turn, `CC(C)CNC(=O)C(=O)Nc1cc2c3c(c1)C(C)C(=O)N3CCC2` (stereo not given) displayed a solubility (kinetic) of 42.7 µg/mL (≈ 130 µM).
On to `O=C(Cn1ccc(=O)[nH]c1=O)NCCO`, for which the solubility (kinetic) was over 32 µg/mL.
`CC(C)C(OC(=O)c1cccs1)C(=O)NCc1ccc(F)cc1` (stereo not given): the kinetic solubility is over 50.3 µg/mL.
`O=C(Cc1ccccc1)N1CCC2(CC1)NCCc1[nH]cnc12` gave a kinetic solubility of 43.1 µg/mL (≈ 139 µM).
The compound `CCOc1ccc(N2CC(C(=O)NCc3ccccc3)CC2=O)cc1` (stereo not given) yielded a kinetic solubility of 9.8 µg/mL (≈ 29 µM).
Take `Cc1cc(=O)oc2cc(OCC(=O)N3CC[C@@]4(O)CCCC[C@H]4C3)ccc12`: the kinetic solubility was over 55.7 µg/mL.
Take `COC(=O)c1ccc(NC(=O)Nc2ccc3c(c2)OCO3)cc1`: the kinetic solubility came out at 0.8 µg/mL (≈ 2.55 µM).
The compound `CCOc1ccc(OCC)c(S(=O)(=O)NCc2ccccc2)c1` returned a kinetic solubility of 40.7 µg/mL (≈ 121 µM).
With `COc1ccccc1-n1c(-c2ccc(F)cc2)coc1=O`, the kinetic solubility was found to be 2.9 µg/mL (≈ 10.2 µM).
Compound `CC1Cc2ccccc2N1S(=O)(=O)c1cccc(C(=O)OCC(=O)N2CCOCC2)c1` (stereo not given) had a kinetic solubility of over 66.7 µg/mL.
`COCCCNC(=S)N1CCC(C(=O)c2ccc(Cl)cc2)CC1` showed a solubility (kinetic) of over 53.2 µg/mL.
`Cn1cnnc1SCC(=O)Nc1ccccc1Oc1ccccc1`: the kinetic solubility is over 51.1 µg/mL.
Turning to `CC(=O)c1ccc(OC(=O)CCNC(=O)c2ccccc2)cc1`, the solubility (kinetic) was determined as 27.6 µg/mL (≈ 88.6 µM).
For `CC(CCc1ccccc1)NCC(O)COc1ccccc1` (stereo not given), the solubility (kinetic) was 43.1 µg/mL (≈ 144 µM).
Compound `O=[N+]([O-])c1cccc(NC(=S)N2CCc3ccccc3C2)c1` showed a solubility (kinetic) of 1.3 µg/mL (≈ 4.15 µM).
Consider `O=C(O)c1ccc(Nc2nc(-c3cccnc3)cs2)cc1`, for which the kinetic solubility was over 44.6 µg/mL.
The compound `N/C(=N/O)c1nc(N2CCCC2)nc(N2CCCC2)n1` gave a solubility (kinetic) of over 41.6 µg/mL.
The compound `Cc1ccc(CSc2nc3ccccc3c(=O)n2C)cc1` showed a solubility (kinetic) of under 0.3 µg/mL.
Compound `CCCN1C2CCCC1CC(NC(=O)c1cccc(OC)c1)C2` (stereo not given) displayed a solubility (kinetic) of over 47.5 µg/mL.
In turn, `Cc1cc(C)n(CC(=O)N2CCc3ccccc32)c(=O)c1C#N` came in with a kinetic solubility of 7 µg/mL (≈ 22.8 µM).
`CN(C)/C=C1\C(=O)N(c2ccc(F)cc2F)C(c2cccnc2)S1(=O)=O` (stereo not given) displayed a solubility (kinetic) of over 56.9 µg/mL.
The compound `COc1ccccc1C(=O)Nc1cc(-c2ccc(C)cc2)no1` returned a solubility (kinetic) of 0.5 µg/mL (≈ 1.62 µM).
In turn, `CCOC(=O)N1CCN(C(=O)c2cc3cc(F)ccc3[nH]2)CC1` registered a kinetic solubility of 40.5 µg/mL (≈ 127 µM).
For `CC(Sc1cccc[n+]1[O-])C(=O)Nc1cc(Cl)c(Cl)cc1Cl` (stereo not given) the value was 53.5 µg/mL (≈ 142 µM); for `Cl.O=C(OCCN1CCOCC1)c1cccc(F)c1`, over 43.5 µg/mL.
`C/C(=N/OC(=O)c1ccc(C)cc1)C(=O)c1ccc(Br)cc1`: the solubility (kinetic) is 33.9 µg/mL (≈ 94.1 µM).
Regarding `O=C(CN1C(=O)S/C(=C\c2cc(Cl)c(O)c(Cl)c2)C1=O)Nc1ccccc1`, the kinetic solubility is 3.6 µg/mL (≈ 8.51 µM).
`CN1CCN(c2ccccc2/C=N/NC(=O)c2cccnc2)CC1` displayed a kinetic solubility of over 48.5 µg/mL.
As to `CCc1ccc(NC(=O)CCC(=O)c2ccc(C)cc2)cc1`, the solubility (kinetic) is 4.3 µg/mL (≈ 14.6 µM).
The value for `Cn1c(NNC(=O)c2c(F)cccc2F)cc(=O)n(C)c1=O` was over 46.5 µg/mL; that for `CCN(CC)c1cc(C)c2cc(NC(=O)c3ccccc3F)ccc2n1` was 10.7 µg/mL (≈ 30.4 µM); that for `O=C(CS(=O)(=O)c1ccccc1)NC1CCCCC1` was over 42.2 µg/mL.
In turn, `CN(C)CCOC1c2ccccc2CSc2ccccc21.O=CO` (stereo not given) displayed a solubility (kinetic) of 46.7 µg/mL.
As for `Cc1nc([N+](=O)[O-])cn1CC(=O)c1ccc(OC(F)(F)F)cc1`, the solubility (kinetic) is 3.3 µg/mL (≈ 10 µM).
`CCOc1ccccc1NC(=O)c1ccc(CN2CCc3ccccc3C2)cc1` showed a solubility (kinetic) of 2.3 µg/mL (≈ 5.95 µM).
Compound `COc1ccc(S(=O)(=O)N2CCCN(C)CC2)cc1.Cl` showed a solubility (kinetic) of over 48.1 µg/mL.
On to `Cc1ccc(CNCC(O)(c2ccccc2)c2ccccc2)cc1`, for which the solubility (kinetic) came out at 6 µg/mL (≈ 18.9 µM).
In the case of `Cc1cc(/C=C2\SC(=S)NC2=O)c(C)n1-c1ccccc1`, the kinetic solubility turned out to be 3.3 µg/mL (≈ 10.5 µM).
Compound `Cc1cccc(OP(N)(=O)Oc2cccc(C)c2C)c1C` yielded a solubility (kinetic) of 3.9 µg/mL (≈ 12.8 µM).
Take `CC(C)CCN1CCN(Cc2cccs2)CC1CCO` (stereo not given): the kinetic solubility came to 39.8 µg/mL (≈ 134 µM).
The value for `O=C(Nc1c[nH]c(=O)[nH]c1=O)c1cc([N+](=O)[O-])cc([N+](=O)[O-])c1` was 16.7 µg/mL (≈ 52 µM).
For `COc1ccc(/C=C/C(=O)Nc2cccnc2Cl)cc1` the value was 8.9 µg/mL (≈ 30.8 µM).
`COC(=O)CN(C#N)c1nc(NCc2ccccc2)nc(OC)n1` displayed a kinetic solubility of over 49.2 µg/mL.
Take `NC1=NC(=O)/C(=C/c2cccc(F)c2)S1`: the solubility (kinetic) amounted to 2.7 µg/mL (≈ 12.1 µM).
`CC(=O)C(Sc1ncnc2sc3c(c12)CCCC3)C(C)=O` gave a kinetic solubility of 38.6 µg/mL (≈ 120 µM).
On to `Cc1cc2oc(=O)cc(CN(C)Cc3ccccc3Cl)c2cc1C`, for which the kinetic solubility was under 0.7 µg/mL.
With `CCN(CCNC(=O)c1ccc(C#N)cc1)c1cccc(C)c1`, the solubility (kinetic) is over 46.1 µg/mL.
The value for `CC1CC1C(=O)OCC(=O)N(C)CC(=O)Nc1ccc(F)cc1` (stereo not given) was over 48.4 µg/mL.
`CC1(C)Cc2c(c(N3CCCC3)nc3sc4c(N5CCNCC5)ncnc4c23)CO1` displayed a kinetic solubility of 28.6 µg/mL (≈ 67.4 µM).
Consider `COC(=O)c1cc(NC(=O)c2ccc(F)cc2)cc(C(=O)OC)c1`, for which the kinetic solubility amounted to 4.9 µg/mL (≈ 14.8 µM).
For the compound `O=C1SC(Cc2ccccc2)C(=O)N1c1ccccc1` (stereo not given), the kinetic solubility came to 6.1 µg/mL (≈ 21.5 µM).
For the compound `C=CCNc1nc(NCc2ccccc2)nc(OCC)n1`, the solubility (kinetic) was found to be 36.6 µg/mL (≈ 128 µM).
Consider `O=C(Nc1cccc(S(=O)(=O)N2CCCCC2)c1)c1ccccn1`, for which the kinetic solubility was found to be 5.1 µg/mL (≈ 14.8 µM).
As for `O=C(Nc1ccccc1Cl)c1sccc1-c1ccccc1`, the solubility (kinetic) is under 0.7 µg/mL.
For the compound `CC1CCN(C(=O)CSc2n[nH]c(-c3cccs3)n2)CC1`, the solubility (kinetic) is over 48.4 µg/mL.
`CCC(CC)C(=O)c1c[nH]c(C(=O)NCc2cccs2)c1` came in with a kinetic solubility of 4.4 µg/mL (≈ 14.5 µM).
For the compound `CCOC(=O)C1CCN(CCC(=O)Nc2cc(C)ccc2C)CC1`, the solubility (kinetic) is over 49.9 µg/mL.
The value for `NC(=O)NC(Cc1ccccc1)C(=O)NNC(=O)COc1ccccc1Cl` (stereo not given) was over 58.6 µg/mL; that for `CCc1cc(C(=O)c2ccc(OC)cc2)c(NC(=O)CCC(=O)O)s1` was over 54.2 µg/mL.
With `NS(=O)(=O)c1ccc(N2CCN(S(=O)(=O)Cc3ccccc3)CC2)nc1`, the solubility (kinetic) is 4.1 µg/mL (≈ 10.3 µM).
For `COC(OC)c1ccnc(SCc2ccccc2Cl)n1` the value was 17.6 µg/mL (≈ 56.6 µM).
`CCCOc1ccc(-c2c(=O)n(O)c3ccccc3[n+]2[O-])cc1` yielded a solubility (kinetic) of over 46.8 µg/mL.
The compound `COc1cc(OC)cc(C(=O)NCc2ccc(-n3cccc3)cc2)c1` displayed a kinetic solubility of 0.4 µg/mL (≈ 1.19 µM).
The value for `O=C(COC(=O)/C=C/c1ccco1)Nc1cc(S(=O)(=O)N2CCOCC2)ccc1Cl` was 2.7 µg/mL (≈ 5.94 µM); that for `O=C(OCc1ccccc1F)c1cnc(Cl)c(Cl)c1` was 1.6 µg/mL (≈ 5.33 µM); that for `CC(Oc1cccc(Cl)c1)C(=O)NCc1ccc(S(N)(=O)=O)cc1` (stereo not given) was 53.3 µg/mL (≈ 145 µM).
In turn, `N#Cc1cc2cc3ccccc3nc2n2c(=O)c3ccccc3nc12` returned a solubility (kinetic) of under 0.2 µg/mL.
Regarding `CN(c1ccccc1)S(=O)(=O)c1ccc(-c2ccccc2)cc1`, the solubility (kinetic) is under 0.7 µg/mL.

For orientation: kinetic solubility means the concentration staying in solution when a stock, usually in DMSO, is diluted into the medium.
